Laboratory results published in US20240246992A1, “MACROCYCLIC LRRK2 KINASE INHIBITORS” (LES LABORATOIRES SERVIER, priority 2021, published 2024).

What follows are compounds tested against human recombinant LRRK2 protein (Homo sapiens, UniProt Q5S007) (assay: LRRK2 kinase activity assay (ADP-Glo, LRRKtide peptide)). Details: human recombinant LRRK2 wt, LRRKtide peptide and ATP, 1 h at 37° C.
human recombinant LRRK2 protein, sequence (Q5S007 whole entry): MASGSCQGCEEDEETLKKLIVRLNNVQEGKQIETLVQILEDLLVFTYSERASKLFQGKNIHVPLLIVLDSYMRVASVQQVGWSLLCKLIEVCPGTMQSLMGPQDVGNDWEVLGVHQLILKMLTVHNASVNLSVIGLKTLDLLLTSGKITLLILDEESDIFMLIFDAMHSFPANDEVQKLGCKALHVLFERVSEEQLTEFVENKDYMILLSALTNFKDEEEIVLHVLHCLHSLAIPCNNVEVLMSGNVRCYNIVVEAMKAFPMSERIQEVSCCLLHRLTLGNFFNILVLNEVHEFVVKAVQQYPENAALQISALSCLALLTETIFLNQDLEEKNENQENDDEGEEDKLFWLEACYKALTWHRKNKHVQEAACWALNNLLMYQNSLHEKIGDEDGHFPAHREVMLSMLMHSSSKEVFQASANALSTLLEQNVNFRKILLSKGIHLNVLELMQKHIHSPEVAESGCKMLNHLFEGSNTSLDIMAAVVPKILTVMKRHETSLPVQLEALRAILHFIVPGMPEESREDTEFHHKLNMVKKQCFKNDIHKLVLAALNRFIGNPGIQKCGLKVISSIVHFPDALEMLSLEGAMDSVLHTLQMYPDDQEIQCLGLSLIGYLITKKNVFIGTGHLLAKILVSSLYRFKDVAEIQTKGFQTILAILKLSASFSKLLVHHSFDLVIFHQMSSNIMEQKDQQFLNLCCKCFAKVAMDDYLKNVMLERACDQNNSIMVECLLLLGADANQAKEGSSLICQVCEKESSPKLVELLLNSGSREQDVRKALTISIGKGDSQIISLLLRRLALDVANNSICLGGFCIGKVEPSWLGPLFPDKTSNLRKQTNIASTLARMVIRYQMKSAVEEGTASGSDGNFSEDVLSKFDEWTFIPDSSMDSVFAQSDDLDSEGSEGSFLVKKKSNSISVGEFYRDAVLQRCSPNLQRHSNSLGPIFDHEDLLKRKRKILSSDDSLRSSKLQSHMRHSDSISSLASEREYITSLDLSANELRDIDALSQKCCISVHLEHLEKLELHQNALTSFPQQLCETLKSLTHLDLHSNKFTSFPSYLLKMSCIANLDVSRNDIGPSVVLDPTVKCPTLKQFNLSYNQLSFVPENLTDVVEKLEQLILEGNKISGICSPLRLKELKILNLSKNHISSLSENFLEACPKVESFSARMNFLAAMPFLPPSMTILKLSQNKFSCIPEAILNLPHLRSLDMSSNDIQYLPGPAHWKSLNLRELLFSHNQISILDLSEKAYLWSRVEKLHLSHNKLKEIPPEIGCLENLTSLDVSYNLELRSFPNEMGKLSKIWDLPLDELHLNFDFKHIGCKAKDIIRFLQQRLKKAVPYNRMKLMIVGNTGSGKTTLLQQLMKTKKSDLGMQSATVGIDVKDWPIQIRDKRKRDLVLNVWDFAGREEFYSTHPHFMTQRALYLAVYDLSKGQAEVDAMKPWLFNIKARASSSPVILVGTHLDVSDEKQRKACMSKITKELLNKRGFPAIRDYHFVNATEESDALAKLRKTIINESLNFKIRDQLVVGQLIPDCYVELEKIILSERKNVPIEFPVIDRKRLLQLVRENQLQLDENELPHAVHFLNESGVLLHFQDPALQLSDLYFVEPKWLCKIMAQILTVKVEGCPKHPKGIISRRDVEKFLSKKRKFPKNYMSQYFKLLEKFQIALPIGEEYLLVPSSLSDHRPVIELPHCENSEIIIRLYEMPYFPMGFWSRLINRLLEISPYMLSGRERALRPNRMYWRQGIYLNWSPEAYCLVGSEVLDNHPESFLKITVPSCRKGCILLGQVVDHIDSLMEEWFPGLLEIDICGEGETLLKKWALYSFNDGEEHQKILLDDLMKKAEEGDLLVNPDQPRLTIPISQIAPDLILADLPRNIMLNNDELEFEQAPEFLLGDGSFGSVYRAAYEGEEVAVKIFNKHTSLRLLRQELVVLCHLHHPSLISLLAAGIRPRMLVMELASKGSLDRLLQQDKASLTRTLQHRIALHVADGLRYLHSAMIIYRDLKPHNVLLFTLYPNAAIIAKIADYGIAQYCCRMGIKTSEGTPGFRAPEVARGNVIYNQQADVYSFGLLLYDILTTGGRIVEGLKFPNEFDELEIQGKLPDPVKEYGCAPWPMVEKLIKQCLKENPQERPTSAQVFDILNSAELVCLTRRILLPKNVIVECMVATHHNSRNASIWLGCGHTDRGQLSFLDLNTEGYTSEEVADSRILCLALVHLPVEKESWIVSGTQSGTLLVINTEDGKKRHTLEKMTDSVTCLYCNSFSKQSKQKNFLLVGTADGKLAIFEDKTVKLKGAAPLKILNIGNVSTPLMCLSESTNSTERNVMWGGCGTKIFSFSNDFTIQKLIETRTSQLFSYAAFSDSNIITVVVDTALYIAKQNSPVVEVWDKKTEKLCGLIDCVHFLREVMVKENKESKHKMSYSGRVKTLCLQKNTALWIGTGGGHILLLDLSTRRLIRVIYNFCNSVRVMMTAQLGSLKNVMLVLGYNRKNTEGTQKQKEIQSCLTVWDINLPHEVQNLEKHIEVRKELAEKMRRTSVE
Assay type: biochemical
Procedure, shortened: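 ADP-Glo luminescence read-out of a peptide assay: compound, ATP and LRRKtide substrate combined with recombinant human LRRK2 and incubated at 37 °C for 1 h. Ten-point data, N=2, curve-fitted to IC50.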
An IC50 of less than 100 nM was found for `C[C@H]1NCCOc2cccc(c2)-c2n[nH]c3ccc(cc23)OC[C@@H]1F` [Example 231, (11R,12R)-12-fluoro-11-methyl-7,14-dioxa-10,19,20-triazatetracyclo[13.5.2.1^2,6.0^18,21]tricosa-1(20),2,4,6(23),15(22),16,18(21)-heptaene] in this work.
An IC50 of less than 10 nM was found for `O=C1COc2cc(cc(N3CCCC3)c2)-c2n[nH]c3ccc(cc23)OCCCN1` [Example 205, 4-(pyrrolidin-1-yl)-7,14-dioxa-10,19,20-triazatetracyclo [13.5.2.1^2,6.0^18,21]tricosa-1(20),2(23),3,5,15,17,21-heptaen-9-one] in this work.
An IC50 of less than 100 nM was found for `C[C@H]1COCCOCCc2cncc(c2)-c2n[nH]c3ccc(cc23)O1` [Example 69, (14S)-14-methyl-9,12,15-trioxa-4,20,21-triazatetracyclo[14.5.2.1^2,6.0^19,22] tetracosa-1(21),2(24),3,5,16(23),17,19(22)-heptaene] in this work.
An IC50 of less than 100 nM was found for `C[C@@H]1COCC[C@H](C)Oc2ccc3[nH]nc(c3c2)-c2cccc(n2)O1` [Example 33, (8R,13S)-8,13-dimethyl-7,10,14-trioxa-19,20,23-triazatetracyclo[13.5.2.1^2,6.0^18,21]tricosa-1(20),2(23),3,5,15(22),16,18(21)-heptaene] in this work.
An IC50 of less than 10 nM was found for `C[C@@H]1CCNC(=O)CCn2cc(cn2)-c2n[nH]c3ccc(cc23)O1` [Example 179, (12R)-12-methyl-13-oxa-4,5,9,18,19-pentaazatetracyclo [12.5.2.1^2,5.0^17,20] docosa-1(19),2(22),3,14(21),15,17(20)-hexaen-8-one] in this work.
An IC50 of less than 10 nM was found for `C[C@@H]1COCCOCCn2cc(cn2)-c2n[nH]c3ccc(cc23)O1` [Example 50, (13R)-13-methyl-8,11,14-trioxa-4,5,19,20-tetraazatetracyclo[13.5.2.1^2,5.0^18,21]tricosa-1(20),2(23),3,15(22),16,18(21)-hexaene] in this work.
An IC50 of less than 10 nM was found for `Fc1ccc2cc1OCCNCCCOc1ccc3[nH]nc-2c3c1` [Example 139, 5-fluoro-7,14-dioxa-10,19,20-triazatetracyclo[13.5.2.1^2,6.0^18,21]tricosa-1(20),2,4,6(23),15,17,21-heptaene] in this work.
An IC50 of less than 1000 nM was found for `c1cc2cc(c1)[C@H]1C[C@@H]1CNCCCOc1ccc3[nH]nc-2c3c1` [Example 165, (7S,9S)-15-oxa-11,20,21-triazapentacyclo[14.5.2.1^2,6.0^7,9.0^19,22]tetracosa-1(21),2(24),3,5,16(23),17,19(22)-heptaene] in this work.
An IC50 of less than 10 nM was found for `C[C@@H]1CCOCCOc2cncc(n2)-c2n[nH]c3ccc(cc23)O1` [Example 41, (13R)-13-methyl-7,10,14-trioxa-4,19,20,23-tetraazatetracyclo[13.5.2.1^2,6.0^18,21]tricosa-1(20),2(23),3,5,15(22),16,18(21)-heptaene] in this work.
An IC50 of less than 10 nM was found for `c1cc2[nH]nc3c2cc1OCCCNCCCn1ncc-3n1` [Example 182, 13-oxa-4,5,9,18,19,22-hexaazatetracyclo[12.5.2.1^2,5.0^17,20] docosa-1(19),2(22),3,14(21),15,17(20)-hexaene] in this work.
An IC50 of less than 100 nM was found for `COC1CNCCOc2cccc(c2)-c2n[nH]c3ccc(cc23)OC1` (stereo not drawn) [Example 171, 12-methoxy-7,14-dioxa-10,19,20-triazatetracyclo[13.5.2.1^2,6.0^18,21]tricosa-1(20),2(23),3,5,15,17,21-heptaene] in this work.
An IC50 of less than 100 nM was found for `C[C@H]1CCOC[C@H](C)Oc2cncc(n2)-c2n[nH]c3ccc(cc23)O1` [Example 47, (8S,13S)-8,13-dimethyl-7,10,14-trioxa-4,19,20,23-tetraazatetracyclo[13.5.2.1^2,6.0^18,21]tricosa-1(20),2(23),3,5,15(22),16,18(21)-heptaene] in this work.
An IC50 of less than 10 nM was found for `c1cc2[nH]nc3c2cc1OCCCOCCCn1cc-3cn1` [Example 5, 9,13-dioxa-4,5,18,19-tetraazatetracyclo[12.5.2.1^2,5.0^17,20] docosa-1(19),2(22),3,14(21),15,17(20)-hexaene] in this work.
An IC50 of less than 100 nM was found for `C[C@@H]1CNCCO[C@H](C)c2cncc(c2)-c2n[nH]c3ccc(cc23)O1` (single isomer, unassigned) [Example 235, (7R or 7S,13R)-7,13-dimethyl-8,14-dioxa-4,11,19,20-tetraazatetracyclo[13.5.2.1^2,6.0^18,21]tricosa-1(20),2(23),3,5,15(22),16,18(21)-heptaene] in this work.
An IC50 of less than 100 nM was found for `C[C@@H]1COc2cncc(n2)-c2n[nH]c3ccc(cc23)O[C@@H](C)CCO1` [Example 58, (9R,13S)-9,13-dimethyl-7,10,14-trioxa-4,19,20,23-tetraazatetracyclo[13.5.2.1^2,6.0^18,21]tricosa-1(20),2(23),3,5,15(22),16,18(21)-heptaene] in this work.
An IC50 of less than 10 nM was found for `C[C@H]1CCNCCOc2cc(cc(N3CCOCC3)c2)-c2n[nH]c3ccc(cc23)O1` [Example 175, (13S)-13-methyl-4-(morpholin-4-yl)-7,14-dioxa-10,19,20-triazatetracyclo[13.5.2.1^2,6.0^18,21]tricosa-1(20),2(23),3,5,15,17,21-heptaene] in this work.
An IC50 of less than 10 nM was found for `c1cc2[nH]nc3c2cc1OCCOCCOCCn1cc-3cn1` [Example 63, 8,11,14-trioxa-4,5,19,20-tetraazatetracyclo[13.5.2.1^2,5.0^18,21]tricosa-1(20), 2(23),3,15(22),16,18(21)-hexaene] in this work.
An IC50 of less than 10 nM was found for `c1cc2[nH]nc3c2cc1OCCCNCCOc1cc-3cc(C2CCOCC2)c1` [Example 147, 4-(oxan-4-yl)-7,14-dioxa-10,19,20-triazatetracyclo[13.5.2.1^2,6.0^18,21]tricosa-1(20),2(23),3,5,15,17,21-heptaene] in this work.
An IC50 of less than 100 nM was found for `O=C1COc2cc(ccc2F)-c2n[nH]c3ccc(cc23)OCCCN1` [Example 138, 5-fluoro-7,14-dioxa-10,19,20-triazatetracyclo[13.5.2.1^2,6.0^18,21]tricosa-1(20),2,4,6(23),15,17,21-heptaen-9-one] in this work.
An IC50 of less than 10 nM was found for `c1cc2[nH]nc3c2cc1OCCCNCCOc1cc-3cc(C2CCCOC2)c1` (stereo not drawn) [Example 149, 4-(oxan-3-yl)-7,14-dioxa-10,19,20-triazatetracyclo[13.5.2.1^2,6.0^18,21]tricosa-1(20),2(23),3,5,15,17,21-heptaene] in this work.
An IC50 of less than 10 nM was found for `C[C@@H]1COCCCOc2nccc(n2)-c2n[nH]c3ccc(cc23)O1` [Example 7, (13R)-13-methyl-7,11,14-trioxa-5,19,20,23-tetraazatetracyclo[13.5.2.1^2,6.0^18,21]tricosa-1(20),2(23),3,5,15(22),16,18(21)-heptaene] in this work.
An IC50 of less than 100 nM was found for `C[C@@H]1COCCOCC(F)n2cc(cn2)-c2n[nH]c3ccc(cc23)O1` (single isomer, unassigned) [Example 106, (6S*,13R)-6-fluoro-13-methyl-8,11,14-trioxa-4,5,19, 20-tetraazatetracyclo[13.5.2.1^2,5.0^18,21]tricosa-1(20),2(23),3,15(22),16,18(21)-hexaene] in this work.
An IC50 of less than 100 nM was found for `C[C@@H]1NCCOc2cccc(c2)-c2n[nH]c3ccc(cc23)OC[C@H]1F` [Example 184, (11S,12S)-12-fluoro-11-methyl-7,14-dioxa-10,19,20-triazatetracyclo[13.5.2.1^2,6.0^18,21]tricosa-1(20),2,4,6(23),15,17,21-heptaene] in this work.
An IC50 of less than 100 nM was found for `c1nn2cc1-c1n[nH]c3ccc(nc13)OCCOCCOCC2` [Example 73, 8,11,14-trioxa-4,5,19,20,22-pentaazatetracyclo[13.5.2.1^2,5.0^18,21]tricosa-1(20),2(23),3,15(22), 16,18(21)-hexaene] in this work.
